Reference: PubChem BioAssay (NCI)
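How tested: cells in 96-well plates exposed to compound for 48 hours at five concentrations. TGI is the concentration that stops growth completely.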

Legend:
Experiment in all cases: growth of human tumour cells (NCI), 48 h
786-0 renal = system: 786-0 renal
ACHN renal = system: ACHN renal
BT-549 breast = system: BT-549 breast
COLO 205 colon = system: COLO 205 colon
DU-145 prostate = system: DU-145 prostate
HCC-2998 colon = system: HCC-2998 colon
HCT-15 colon = system: HCT-15 colon
HOP-62 NSCLC = system: HOP-62 NSCLC
HT29 colon = system: HT29 colon
KM12 colon = system: KM12 colon
MDA-MB-231 breast = system: MDA-MB-231 breast
MDA-MB-435 = system: MDA-MB-435
MOLT-4 leukemia = system: MOLT-4 leukemia
NCI-H226 lung = system: NCI-H226 lung
OVCAR-3 ovarian = system: OVCAR-3 ovarian
SF-268 CNS = system: SF-268 CNS
SNB-75 CNS = system: SNB-75 CNS
TK-10 renal = system: TK-10 renal
U251 CNS = system: U251 CNS
UACC-257 melanoma = system: UACC-257 melanoma

SMILES | TGI (786-0 renal) | TGI (ACHN renal) | TGI (BT-549 breast) | TGI (COLO 205 colon) | TGI (DU-145 prostate) | TGI (HCC-2998 colon) | TGI (HCT-15 colon) | TGI (HOP-62 NSCLC) | TGI (HT29 colon) | TGI (KM12 colon) | TGI (MDA-MB-231 breast) | TGI (MDA-MB-435) | TGI (MOLT-4 leukemia) | TGI (NCI-H226 lung) | TGI (OVCAR-3 ovarian) | TGI (SF-268 CNS) | TGI (SNB-75 CNS) | TGI (TK-10 renal) | TGI (U251 CNS) | TGI (UACC-257 melanoma)
O=c1c2c3c(sc2nc2n1N=CN(c1ccc(Cl)cc1)C2)CCCC3 | > 100 µM | > 100 µM | > 100 µM | > 100 µM | > 100 µM | 72 µM | > 100 µM | > 100 µM | > 100 µM | > 100 µM | > 100 µM | > 100 µM | > 100 µM | > 100 µM | > 100 µM | > 100 µM | > 100 µM | > 100 µM | > 100 µM | > 100 µM
O=C(/C=C/c1cccs1)c1ccc(C(=O)/C=C/c2cccs2)cc1 | > 100 µM | > 100 µM | > 100 µM | > 100 µM | > 100 µM | > 100 µM | > 100 µM | > 100 µM | > 100 µM | > 100 µM | > 100 µM | > 100 µM | > 100 µM | > 100 µM | > 100 µM | > 100 µM | > 100 µM | > 100 µM | > 100 µM | > 100 µM
N=C(N)C1CN(CC=O)C(=O)NC1=O (stereo not given) | > 100 µM | > 100 µM | > 100 µM | > 100 µM | > 100 µM | > 100 µM | > 100 µM | > 100 µM | > 100 µM | – | > 100 µM | > 100 µM | > 100 µM | > 100 µM | > 100 µM | > 100 µM | > 100 µM | > 100 µM | > 100 µM | > 100 µM
CC(C)N1CCCOC(c2ccc([N+](=O)[O-])cc2)O1 (stereo not given) | > 100 µM | > 100 µM | > 100 µM | > 100 µM | > 100 µM | > 100 µM | > 100 µM | > 100 µM | > 100 µM | > 100 µM | > 100 µM | > 100 µM | > 100 µM | > 100 µM | > 100 µM | > 100 µM | > 100 µM | > 100 µM | > 100 µM | > 100 µM
NC(=O)NC(=O)c1ccc(NC(=O)CBr)cc1 | 0.919 µM | 2.91 µM | 4.7 µM | 2.99 µM | 6.92 µM | 25.5 µM | 4.56 µM | 4.81 µM | 3.42 µM | 10.1 µM | 6.48 µM | 3.06 µM | 2.61 µM | 10.2 µM | 2.74 µM | 3.09 µM | 4.19 µM | 2.68 µM | 2.25 µM | 5.29 µM
Cc1nc2ccc(N=NN(C)C)cc2[nH]1 | > 100 µM | > 100 µM | > 100 µM | > 100 µM | > 100 µM | > 100 µM | > 100 µM | > 100 µM | > 100 µM | > 100 µM | > 100 µM | > 100 µM | > 100 µM | > 100 µM | > 100 µM | > 100 µM | > 100 µM | > 100 µM | > 100 µM | > 100 µM
O=C(/C=C/c1ccccc1)CCC1C(=O)NC(=O)NC1=O | > 100 µM | > 100 µM | > 100 µM | > 100 µM | > 100 µM | > 100 µM | > 100 µM | – | > 100 µM | > 100 µM | > 100 µM | > 100 µM | > 100 µM | > 100 µM | > 100 µM | > 100 µM | > 100 µM | > 100 µM | > 100 µM | > 100 µM
CCO/C(O)=C(/C(=N)N1CCCC1)C(=O)Nc1ccc(Cl)cc1 | > 100 µM | > 100 µM | > 100 µM | > 100 µM | > 100 µM | > 100 µM | > 100 µM | > 100 µM | > 100 µM | > 100 µM | > 100 µM | > 100 µM | > 100 µM | > 100 µM | > 100 µM | > 100 µM | > 100 µM | > 100 µM | > 100 µM | > 100 µM
COc1cc(/C=C2\N=C(c3ccccc3)N(/N=C/c3cc4cc(C)ccc4nc3Cl)C2=O)cc(OC)c1OC | > 100 µM | > 100 µM | > 100 µM | 63.7 µM | 80.6 µM | 45.4 µM | > 100 µM | > 100 µM | > 100 µM | > 100 µM | > 100 µM | 40.7 µM | 51 µM | – | > 100 µM | > 100 µM | 61.5 µM | > 100 µM | 51 µM | > 100 µM
C=CC(c1ccccc1)C1(O)c2cccc(O)c2C(=O)c2c(O)cccc21 (stereo not given) | 31.1 µM | 31.9 µM | 34.8 µM | – | 28.8 µM | 22.9 µM | 29.4 µM | 41.1 µM | 25.3 µM | 40.9 µM | 36.7 µM | 22 µM | 46.8 µM | 39.8 µM | 38.9 µM | 36.6 µM | 41.8 µM | 38.6 µM | 24.5 µM | 40.2 µM
CC(C)C(Cl)CC/C(CBr)=C(\Cl)CCl (stereo not given) | 5.04 µM | 29.6 µM | 3.99 µM | 12.8 µM | 26.3 µM | 26.7 µM | 10.4 µM | 31.1 µM | 11.7 µM | 16.4 µM | 8.36 µM | 10 µM | > 20.3 µM | 22.2 µM | 10.4 µM | 32.1 µM | 17 µM | 28 µM | 23.1 µM | 11 µM
COC(=O)/C(C#N)=C(\Nc1ccccc1)N1CCCCC1 | > 100 µM | > 100 µM | > 100 µM | > 100 µM | > 100 µM | > 100 µM | > 100 µM | > 100 µM | > 100 µM | – | > 100 µM | > 100 µM | > 100 µM | > 100 µM | > 100 µM | > 100 µM | > 100 µM | > 100 µM | > 100 µM | > 100 µM
